Measurements reported in US12435062B2, “Amide compounds and uses thereof” (HUTCHISON MEDIPHARMA LIMITED, priority 2020, dated 2025).

Assays:
[1] = target: CSF1R phosphorylation in THP-1 cells (Homo sapiens (Human), UniProt P07333); assay: Detection of CSF1R phosphorylation activity at cell level (THP-1, M-CSF stimulated, ELISA); format: cell-based; conditions: p-CSF1R ELISA, compound 60 min, 300 ng/mL M-CSF 1 min
Summary of the method: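 THP-1 cells (5×10^4/well, RPMI 1640, 2% FBS) were pre-treated with compound for 60 min at 37 °C, then stimulated with 300 ng/mL M-CSF for 1 min and lysed. Phospho-CSF1R was read by sandwich ELISA (p-CSF1R capture, anti-phosphotyrosine-HRP detection, OD 450/570 nm). IC50 was fitted with cell-free wells as background.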

Ba/F3^BCR-FMS-11 cells = assay: Cell proliferation experiment (Ba/F3^BCR-FMS-11, cckit-8); format: cell-based, mouse; conditions: Mus musculus, Ba/F3^BCR-FMS-11 cell proliferation
Summary of the method: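 Ba/F3 cells stably expressing BCR-FMS, CSF-1R-dependent for growth, seeded at 5000/well in RPMI 1640 with 10% FBS and exposed to 8 compound concentrations for 72 h at 37 °C.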

[2] = target: Recombinant human CSF1R kinase (Homo sapiens (Human), UniProt P07333); format: biochemical; conditions: Z-LYTE Tyr 1 peptide substrate
Recombinant human CSF1R kinase, sequence (P07333 20-972): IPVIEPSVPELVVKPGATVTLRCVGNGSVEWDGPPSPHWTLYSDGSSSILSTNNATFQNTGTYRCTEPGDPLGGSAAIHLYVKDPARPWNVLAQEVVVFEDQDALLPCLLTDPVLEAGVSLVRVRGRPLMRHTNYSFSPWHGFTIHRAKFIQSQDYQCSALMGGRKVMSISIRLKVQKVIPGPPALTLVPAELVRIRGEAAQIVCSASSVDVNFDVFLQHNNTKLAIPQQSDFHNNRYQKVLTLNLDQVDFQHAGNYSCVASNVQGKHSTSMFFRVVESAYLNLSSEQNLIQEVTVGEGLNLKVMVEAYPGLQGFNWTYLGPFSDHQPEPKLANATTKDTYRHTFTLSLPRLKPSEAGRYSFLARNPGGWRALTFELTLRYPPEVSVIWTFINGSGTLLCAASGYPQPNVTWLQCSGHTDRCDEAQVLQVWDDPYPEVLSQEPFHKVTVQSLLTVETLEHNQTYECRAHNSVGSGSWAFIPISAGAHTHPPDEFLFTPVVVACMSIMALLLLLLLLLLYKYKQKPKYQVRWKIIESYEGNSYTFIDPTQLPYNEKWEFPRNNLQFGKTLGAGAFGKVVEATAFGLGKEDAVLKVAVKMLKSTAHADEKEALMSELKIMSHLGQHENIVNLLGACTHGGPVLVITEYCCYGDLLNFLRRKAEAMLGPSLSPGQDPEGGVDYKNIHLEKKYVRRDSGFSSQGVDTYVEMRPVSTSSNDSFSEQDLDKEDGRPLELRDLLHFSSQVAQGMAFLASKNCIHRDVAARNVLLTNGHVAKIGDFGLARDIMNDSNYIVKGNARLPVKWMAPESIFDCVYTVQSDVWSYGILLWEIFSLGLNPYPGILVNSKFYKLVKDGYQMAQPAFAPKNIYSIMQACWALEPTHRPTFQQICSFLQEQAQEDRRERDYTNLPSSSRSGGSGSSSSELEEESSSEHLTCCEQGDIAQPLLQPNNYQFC
Method: Measurement of CSF1R Kinase Activity at Molecular Level
1. Reagents and materials:
• Z-LYTE™ Tyr 1 peptide substrate: Invitrogen, PV3190; • 5× kinase buffer: Invitrogen, PV3189; • 10 mM ATP: Invitrogen, PV3227; • Development reagent B: Invitrogen, PV3295; • Development buffer: Invitrogen, P3127; • Stopping solution: Invitrogen, P3094; • Recombinant human CSF1R kinase: Invitrogen, PR4598A; • 384 well plate, black: Corning, 3575; Envision: Perkin Elmer. 2. Preparation of reaction solutions
1) 1.33× kinase buffer: 5× kinase buffer was diluted to a 1.33× kinase buffer with ddH2O.
2) Dilution of a 4× test compound: The test compound was diluted in gradient to 4-fold the reaction concentration and the concentration of DMSO was kept at 8%. The final concentration of the compound in reaction was: 1, 0.33, 0.11, 0.037, 0.012, 0.004, 0.0014, 0.00046 μM, and the final concentration of DMSO was 2%.
3) A mixture of kinase/peptide substrate: In 1.33× kinase buffer, the kinase and Z-LYTE™ Tyr 1 peptide substrate were diluted to 0.12 μg/mL and 4 μM, respectively, to prepare a mixture of kinase/peptide substrate. The mixture was mixed gently with a pipette.
4) A phosphorylated peptide substrate solution (PP solution): 0.4 μL of Z-LYTE™ Tyr1 phosphorylated peptide substrate was added to 99.6 μL of 1.33× kinase buffer.
5) ATP solution: 10 mM of ATP was diluted to 760 μM with 1.33× kinase buffer to prepare ATP solution.
6) Development solution: Development reagent B was diluted with Development buffer at a ratio of 1:200.
1) Kinase reaction (10 μL system)
2.5 μL of 4× test compound was added to each reaction well of the 384 plate, and the corresponding volume of 8% DMSO was added to the control well. The plate was placed on ice. 5 μL of a mixture of kinase/peptide substrate, 2.5 μL of kinase buffer and ATP solution were successively added to each well. Three control groups were set up: Group C1 contains only kinase buffer, group C2 contains the mixture of kinase/peptide substrate, kinase buffer and ATP, and group C3 contains 5 μL of PP solution. After adding the reaction components, the 384-well plate was sealed and incubated at 25-30° C. for 1 h in dark.
5 μL of Development solution was added to each well, sealed and incubated at 25-30° C. for another 1 h in dark.
3) Reaction stopping and plate reading
5 μL of stopping solution was added to each well. The Coumarin value (excitation at 400 nm, emission at 445 nm) and Fluorescein value (excitation at 400 nm, emission at 520 nm) were measured, respectively.
ER (emission ratio): Coumarin emission read-out (445 nm)/Fluorescein emission read-out (520 nm); • C3 445 nm: 100% phosphorylated Coumarin emission read-out; • C3 520 nm: 100% phosphorylated Fluorescein emission read-out; • C1 445 nm: 0% phosphorylated Coumarin emission read-out; • C1 520 nm: 0% phosphorylated Fluorescein emission read-out. Inhibition rate % (IR)=[1−% phosphorylation ratetest sample/100% phosphorylation ratecontrol]×100%
% phosphorylation ratetest sample: phosphorylation rate of the test compound; • 100% phosphorylation ratecontrol: phosphorylation rate of C3 control group.
5. IC50 values: calculated by using software XL-Fit™ (version 5.3) supplied by ID Business Solutions (Guildford, UK), which is an additional software to Microsoft Excel.

CSF1R phosphorylation in THP-1 cells, sequence (P07333 20-972): as above

Cc1ncc(C(=O)Nc2ccc(Oc3ccnc(-c4ccn(C)c4)c3)cn2)c(=O)n1C [Compound 117, 1,2-dimethyl-N-(5-((2-(1-methyl-1H-pyrrol-3-yl)pyridin-4-yl)oxy)pyridin-2-yl)-6-oxo-1,6-dihydropyrimidine-5-carboxamide]
IC50 [1]: 8 nM | IC50 (Ba/F3^BCR-FMS-11 cells; 72 h): 9 nM | IC50 [2]: 7 nM

Cc1cc(C(=O)Nc2ccc(Oc3ccnc(-c4cnn(C)c4)c3)cn2)c(=O)n(C)c1 [Compound 118]
IC50 [1]: 21 nM | IC50 (Ba/F3^BCR-FMS-11 cells; 72 h): 6 nM | IC50 [2]: 19 nM

Cc1nc(-c2cc(Oc3ccc(NC(=O)c4cnc(C)n(C)c4=O)nc3)ccn2)cs1 [Compound 120]
IC50 [1]: 21 nM | IC50 (Ba/F3^BCR-FMS-11 cells; 72 h): 39 nM | IC50 [2]: 52 nM

Cc1ncc(C(=O)Nc2ccc(Cc3ccnc(-c4cnn(C)c4)c3)cn2)c(=O)n1C [Compound 123, 1,2-dimethyl-N-(5-((2-(1-methyl-1H-pyrazol-4-yl)pyridin-4-yl)methyl)pyridin-2-yl)-6-oxo-1,6-dihydropyrimidine-5-carboxamide]
IC50 [1]: 16 nM | IC50 (Ba/F3^BCR-FMS-11 cells; 72 h): 25 nM | IC50 [2]: 19 nM

Cc1cc(C(=O)Nc2ccc(Oc3ccnc(-c4ccn(C)c4)c3)cn2)c(=O)n(C)c1 [Compound 124]
IC50 [1]: 19 nM | IC50 (Ba/F3^BCR-FMS-11 cells; 72 h): 11 nM | IC50 [2]: 16 nM

CC(C)n1cccc(C(=O)Nc2ccc(Oc3ccnc(-c4ccn(C)c4)c3)cn2)c1=O [Compound 125]
IC50 [1]: 24 nM | IC50 (Ba/F3^BCR-FMS-11 cells; 72 h): 17 nM | IC50 [2]: 7 nM

CC(C)n1nccc(C(=O)Nc2ccc(Oc3ccnc(-c4ccn(C)c4)c3)cn2)c1=O [Compound 126]
IC50 [1]: 30 nM | IC50 (Ba/F3^BCR-FMS-11 cells; 72 h): 28 nM | IC50 [2]: 25 nM

[2H]C([2H])([2H])n1c(C)ncc(C(=O)Nc2ccc(Oc3ccnc(-c4cnn(C)c4)c3)cn2)c1=O [Compound 128, 2-methyl-1-(methyl-d3)-N-(5-((2-(1-methyl-1H-pyrazol-4-yl)pyridin-4-yl)oxy)pyridin-2-yl)-6-oxo-1,6-dihydropyrimidine-5-carboxamide]
IC50 [1]: 6 nM | IC50 (Ba/F3^BCR-FMS-11 cells; 72 hours): 2 nM | IC50 [2]: 5 nM

[2H]C([2H])([2H])n1cc(-c2cc(Oc3ccc(NC(=O)c4cnc(C)n(C)c4=O)nc3)ccn2)cn1 [Compound 129, 1,2-dimethyl-N-(5-((2-(1-(methyl-d3)-1H-pyrazol-4-yl)pyridin-4-yl)oxy)pyridin-2-yl)-6-oxo-1,6-dihydropyrimidine-5-carboxamide]
IC50 [1]: 7 nM | IC50 (Ba/F3^BCR-FMS-11 cells; 72 hours): 2 nM | IC50 [2]: 4 nM

Cc1ncc(C(=O)Nc2ccc(Oc3ccnc(-c4cn[nH]c4)c3)cn2)c(=O)n1C [Compound 130, N-(5-((2-(1H-pyrazol-4-yl)pyridin-4-yl)oxy)pyridin-2-yl)-1,2-dimethyl-6-oxo-1,6-dihydropyrimidine-5-carboxamide]
IC50 [1]: 7 nM | IC50 (Ba/F3^BCR-FMS-11 cells; 72 h): 15 nM | IC50 [2]: 21 nM

Cc1ncc(C(=O)Nc2ccc(Oc3ccnc(-c4cnn(C)c4)c3)cn2)c(=O)[nH]1 [Compound 131, 2-methyl-N-(5-((2-(1-methyl-1H-pyrazol-4-yl)pyridin-4-yl)oxy)pyridin-2-yl)-6-oxo-1,6-dihydropyrimidine-5-carboxamide]
IC50 [1]: 56 nM | IC50 (Ba/F3^BCR-FMS-11 cells; 72 h): 396 nM | IC50 [2]: 76 nM

Cn1cc(-c2cc(Oc3ccc(NC(=O)c4cnc(CCO)[nH]c4=O)nc3)ccn2)cn1 [Compound 132, 2-(2-hydroxyethyl)-N-(5-((2-(1-methyl-1H-pyrazol-4-yl)pyridin-4-yl)oxy)pyridin-2-yl)-6-oxo-1,6-dihydropyrimidine-5-carboxamide]
IC50 [1]: 2110 nM | IC50 (Ba/F3^BCR-FMS-11 cells; 72 h): 1190 nM | IC50 [2]: 198 nM

Cn1cc(-c2cc(Oc3ccc(NC(=O)c4cnc(CO)[nH]c4=O)nc3)ccn2)cn1 [Compound 133, 2-(hydroxymethyl)-N-(5-((2-(1-methyl-1H-pyrazol-4-yl)pyridin-4-yl)oxy)pyridin-2-yl)-6-oxo-1,6-dihydropyrimidine-5-carboxamide]
IC50 [1]: > 3000 nM | IC50 (Ba/F3^BCR-FMS-11 cells; 72 h): > 3300 nM | IC50 [2]: 548 nM
